Measurements as given in patent publication US10722532B2, “Polymer-conjugated METAP2 inhibitors, and therapeutic methods of use thereof” (SynDevRx, Inc., priority 2010, dated 2020).
In brackets after ≈: the same amount, converted by molar mass. Read-outs that look alike come from different tables or passages of the source.

Experiments:
A549 cells [1] = assay: A549 human non-small cell lung carcinoma cell viability assay (CellTiter-Glo); format: cell-based; settings: small molecules, 72 hours exposure
Method: (§1) Test compounds, small molecules or polymer conjugates, were dissolved in dimethyl sulfoxide to a stock concentration of 5 mg/mL. The test agents were then diluted to an intermediate concentration at 200 μg/mL in 10% DMSO. Further dilutions were completed serially 3-fold in 10% DMSO to produce 12 decreasing concentrations for in-vitro analysis. To achieve the target concentrations of the in-vitro assays, […] of the intermediate drug preparation was delivered to the cells (seeded in a volume of 50 μL). The final DMSO concentration for the tests was 0.2% for all doses of test agent.
(§2) Cells were exposed to twelve increasing concentrations of formulated test agent from 2×10^−6 to 4.0 μg/mL for 72 hours. Following 72 hour exposure, 25 μL of CellTiter-Glo® Reagent was added to each well. The plates were incubated for 60 minutes at 37° C. in a humidified incubator. After incubation, luminescence was recorded using the Molecular Devices AnalystGT multi-mode reader.
(§3) Data are expressed as the percent cell growth of the untreated (vehicle) control calculated from the luminescence signals. The surviving fraction of cells is determined by dividing the mean luminescence values of the test agents by the mean luminescence values of untreated control. The inhibitory concentration value for the test agent(s) and control were estimated using Prism 5 software (GraphPad Software, Inc.) by curve-fitting the data using the non-linear regression analysis.
The human tumor cell lines A549 and HCT-116 were obtained from American Type Culture Collection (Manassas, Va.). The Human umbilical vein epithelial cells (HUVEC) were obtained from Lonza (Basel, Switzerland). The A549 cells were maintained RPMI 1640 w/L-glut supplemented with 5% FBS. The HCT-116 cells were maintained in McCoy's 5a supplemented with 5% FBS. The HUVEC line was grown in Endothelial Growth Medium with supplements and growth factors (BBE, hydrocortisone, hEGF, FBS and gentamicin/amphotericin-B). All cells were house in an atmosphere of 5% CO2 at 37° C. Cells were dissociated with 0.05% Trypsin and 0.02% EDTA.
(§4) The human tumor cell line A549 was obtained from American Type Culture Collection (Manassas, Va.). The A549 cells were maintained RPMI 1640 w/L-glut supplemented with 5% FBS. A549 cells were seeded at 500 cells per well 24 hours prior to test agent exposure in a volume of 50 μL. The cells were housed in an atmosphere of 5% CO2 at 37° C. Cells were dissociated with 0.05% Trypsin and 0.02% EDTA.

HUVEC cells = assay: Human umbilical vein epithelial cell viability assay (CellTiter-Glo); format: cell-based; settings: small molecules, 72 hours exposure
Method: as §1, §3
The Human umbilical vein epithelial cells (HUVEC) were obtained from Lonza (Basel, Switzerland). The HUVEC line was grown in Endothelial Growth Medium with supplements and growth factors (BBE, hydrocortisone, hEGF, FBS and gentamicin/amphotericin-B). All cells were housed in an atmosphere of 5% CO2 at 37° C. Cells were dissociated with 0.05% Trypsin and 0.02% EDTA.
as §2, with “HUVEC cells were seeded at 1000 cells per well 24 hours prior to test agent exposure in a volume of […]. Cells” for “Cells”, “2.3×10^−6” for “2×10^−6”, “4.02” for “4.0”, “[…]” for “25 μL”, “CellTiter-Glog®” for “CellTiter-Glo®”

[2] = for T ½: buffer; for Natural Rate Constant: 37° C., 5 μM
Method: At the appropriate time points, a 50 μL sample was withdrawn and diluted with three volumes of methanol containing propranolol as an internal standard (one solution was made for the entire study). The concentration of carbamoylfumagillol in the solution was analyzed by LC/MS/MS over seven days.

[3] = in man; as metabolite of TNP-470; cited from earlier work
HCT-116 cells = assay: HCT-116 human colon tumor cell viability assay (CellTiter-Glo); format: cell-based; settings: small molecules, 72 hours exposure
Method: as §1, §3
as §4, with “cell lines” for “cell line”, “A549 and HCT-116 were” for “A549 was”, “The HCT-116” for “The A549”, “maintained in McCoy's 5a” for “maintained RPMI 1640 w/L-glut”, “FBS. HCT-116” for “FBS. A549”
as §2, with “2.3×10^−6” for “2×10^−6”, “4.02” for “4.0”

[4] = tested on: A549 tumor cells vs normal HUVEC cells; assay: A549/HUVEC selectivity (ratio of IC50s); format: cell-based, human
B16-F10 tumor cells = assay: In vivo B16-F10 murine melanoma, lung metastases counts; parameters: species or system C57B16 female mice; settings: 30 mg/kg, qod; sacrificed after 15 days
Method: C57B16 female mice (N=8) were injected (tail vein) with 1×10^5 B16-F10 tumor cells. After one day, mice were treated with polymer conjugates as solutions in saline (IV administration, q4d, four doses except that in one group O-7175 was administered as a single dose on day 1). TNP-470 was used as a positive control, saline as a negative control. Mice were sacrificed after 15 days. Treatment outcomes were assessed by counting lung metastases.

Cathepsin B = target: T1, Cathepsin B (Bos taurus, UniProt P07688); assay: Cathepsin B release of fumagillol analogs from HPMA conjugates; format: in vitro ADME; settings: 40 nM Cathepsin B, approximately 2.5 mg/mL test agent, pH 5.5 or 6.8, 37° C., 0-24 hour, LC/MS/MS
T1 construct: purchased Sigma C6286
Method: Cathepsin B (Sigma Cat # C6286 Lot #025K7672) was diluted to a 10× concentration in activation buffer consisting of approximately 400 nM enzyme, 30 mM DTT, 15 mM EDTA and acetate buffer, pH=5.5 for 15 minutes at room temperature.
The HPMA conjugates were made into a 10× stock solution in pH 5.5 buffer. The final reaction was performed by diluting the enzyme and substrate 10 fold into either buffer at pH=5.5 or pH=6.8. The final enzymatic reaction consisted of 40 nM Cathepsin B, approximately 2.5 mg/mL test agent, and buffer at 37° C. The reaction was stopped at 0, 2, 6, and 24 hour. To stop the reaction, 3 volumes of ice-cold methanol containing propranolol internal standard (at 1.0 μM) was added and left on ice. The samples were then analyzed by LC/MS/MS.

A549 cells [5] = format: in vitro ADME, human
Method: Cells were treated as in Example 51 except that at the end of 72 hour exposure to test agent, the cells were frozen (−70° C.) and stored for subsequent evaluation by LC/MS.

Compound | A549 IC50 Average (A549 cells [1]) [ng/mL] | HUVEC IC50 Average (HUVEC cells) [ng/mL] | HCT116 IC50 Average (HCT-116 cells) [ng/mL] | A549/HUVEC IC50 ratio [4] | products released by Cathepsin B (Cathepsin B) | other results
CO[C@@H]1[C@H](OC(N)=O)CC[C@]2(CO2)[C@H]1[C@@]1(C)O[C@@H]1CC=C(C)C [Carbamoylfumagillol] | 2.89 | 0.086 | 1.035 |  |  | T ½ ([2]; pH 4): 5.38 days; T ½ ([2]; pH 5.3): 17 days; T ½ ([2]; pH 6.7): 30.3 days; T ½ ([2]; pH 8): 25.5 days; Natural Rate Constant ([2]; pH 4.0, 10 mM sodium acetate buffer): 0.0054 h⁻¹; Natural Rate Constant ([2]; pH 5.3, 10 mM sodium acetate buffer): 0.0017 h⁻¹; decomposition ([2]; pH 5.3 to 8.0, 37° C., over the seven day period): less than 20%; Natural Rate Constant ([2]; pH 6.7, potassium phosphate buffer): 0.0010 h⁻¹; Natural Rate Constant ([2]; pH 8.0, potassium phosphate buffer): 0.0011 h⁻¹; half-life [3]: 0.00833 days
CO[C@@H]1[C@H](OC(=O)N[C@@H](C(N)=O)C(C)C)CC[C@]2(CO2)[C@H]1[C@@]1(C)O[C@@H]1CC=C(C)C [Compound O-7177] | 0.215 | 0.101 | 0.236 | 2.14 |  | 
CO[C@@H]1[C@H](O)CC[C@]2(CO2)[C@H]1[C@@]1(C)O[C@@H]1CC=C(C)C [Fumagillol] | 30.1 | 18.9 | 45.8 | 1.59 |  | 
CO[C@@H]1[C@H](OC(=O)NC(=O)CCl)CC[C@]2(CO2)[C@H]1[C@@]1(C)O[C@@H]1CC=C(C)C [TNP-470, chloroacetylcarbamoylfumagillol] |  |  |  | 58.53 |  | IC50 (A549 cells [1]; Homo sapiens, A549): 8.97 ng/mL (≈ 22.3 nM); IC50 (HUVEC cells; Homo sapiens, HUVEC): 0.153 ng/mL (≈ 0.381 nM); Metastases Counts (B16-F10 tumor cells): 39.5; IC50 (HCT-116 cells; Homo sapiens, HCT-116, read-out: HCT116 IC50 Average): 2.64 ng/mL (≈ 6.57 nM)
poly(HPMA-co-MA-GFLG-N(Me)CH2CH2N(Me)CH2C(O)NHC(O)2-fumagill-6-yl) |  |  |  |  | fumagillol, carbamoylfumagillol, fumagil-6-yl methyl[2-(methylamino)ethyl]carbamate, and ethyl {2-[(aminoacetyl)(methyl)amino]ethyl}methylcarbamate | 
poly(HPMA-co-MA-GFLG-NHCH2CH2N(Me)CH2C(O)NHC(O)2-fumagill-6-yl) |  |  |  |  | fumagillol, carbamoylfumagillol, and fumagil-6-yl (2-aminoethyl)methylcarbamate | 
poly[HPMA-co-MA-GFLG-N-(6-aminohexyl)carbamoylfumagillol] |  |  |  |  | N-(6-aminohexyl)carbamoylfumagillol and fumagil-6-yl {6-[(aminoacetyl)amino]hexyl}carbamate | Metabolites identified from the treated cells (A549 cells [5]): N-(6-aminohexyl)carbamoylfumagillol,fumagill-6-yl {6-[(aminoacetyl)amino]hexyl}carbamate, and the epoxide hydrolysis product, (35′,7aR)-7a-(hydroxymethyl)-4-methoxy-3-methyl-2-(3-methylbut-2-en-1-yl)octahydro-1-benzofuran-3-ol-5-yl 6-aminohexyl carbamate
